# Assay results taken from patent US10258041B2, “Substituted pyrazolylpyrazole derivative and use of same as herbicide” (KYOYU AGRI CO., LTD., priority 2015, dated 2019).
# Tests used:
# Assay type in all cases: in vivo
# [1] = tested on: Oryza sativa; assay: Paddy herbicidal activity test, chemical damage to transplanted rice; conditions: rice transplanted in 2.0 leaf stage, 30 days
# Protocol: (§1) Rice paddy soil was filled into a 1/10000 are pot followed by the addition of suitable amounts of water and chemical fertilizer, kneading, seeding with Echinochloa crus-galli, Monochoria vaginalis and Scirpus juncoides and maintaining in an irrigated state at a water depth of 3 cm. Wettable powders of Target Compound (I) shown in Table 1 prepared in compliance with the preparation examples were diluted with a suitable amount of water, rice plants in the 2.0 leaf stage were transplanted during 3.5 leaf stage of Echinochloa crus-galli, and treated by dropping in chemical in the prescribed amount per 10 are using a pipette. After treating for 30 days in a glass greenhouse at an average atmospheric temperature of […], the herbicidal efficacy thereof was investigated. Evaluation of herbicidal efficacy was carried out by comparing growth inhibition rate (%) with an untreated group, while evaluation of chemical damage was carried out by comparing growth inhibition rate (%) with the state of a complete eradication group, and were evaluated at 11 levels indicated below. • 0 (exponent): 0% to less than 10% (growth inhibition rate) • 1: 10% to less than 20% • 2: 20% to less than 30% • 3: 30% to less than 40% • 4: 40% to less than 50% • 5: 50% to less than 60% • 6: 60% to less than 70% • 7: 70% to less than 80% • 8: 80% to less than 90% • 9: 90% to less than 100% • 10: 100%
# [2] = tested on: Echinochloa crus-galli; assay: Paddy herbicidal activity test; conditions: irrigated pot, treated at 3.5 leaf stage of Echinochloa crus-galli, 30 days
# Protocol: as §1
# [3] = tested on: Monochoria vaginalis; assay: Paddy herbicidal activity test; conditions: irrigated pot, treated at 3.5 leaf stage of Echinochloa crus-galli, 30 days
# Protocol: as §1
# [4] = tested on: Scirpus juncoides; assay: Paddy herbicidal activity test; conditions: irrigated pot, treated at 3.5 leaf stage of Echinochloa crus-galli, 30 days
# Protocol: as §1
# [5] = tested on: Chenopodium album; assay: Weed foliar treatment test (Test 3); conditions: foliar spray at 1.0 to 2.0 leaf stage of Digitaria ciliaris, 3 weeks, 25° C.
# Protocol: (§2) Evaluation of herbicidal efficacy was carried out by comparing growth inhibition rate (%) with an untreated group, while evaluation of chemical damage was carried out by comparing growth inhibition rate (%) with the state of a complete eradication group, and were evaluated at 11 levels indicated below. • 0 (exponent): 0% to less than 10% (growth inhibition rate) • 1: 10% to less than 20% • 2: 20% to less than 30% • 3: 30% to less than 40% • 4: 40% to less than 50% • 5: 50% to less than 60% • 6: 60% to less than 70% • 7: 70% to less than 80% • 8: 80% to less than 90% • 9: 90% to less than 100% • 10: 100% Soil was filled into a 1/6000 are pot followed by seeding with Digitaria ciliaris, Chenopodium album and Amaranthus retroflexus, covering with soil, and cultivating in a glass greenhouse at an average atmospheric temperature of 25° C. Wettable powders of Target Compound (I) shown in Table 1 prepared in compliance with the preparation examples were diluted with water to the prescribed amount of chemical and uniformly sprayed onto the weeds using 150 liters of sprayed water per 10 are when Digitaria ciliaris had grown to the 1.0 to 2.0 leaf stage. After treating for 3 weeks in a glass greenhouse at an average atmospheric temperature of 25° C., the herbicidal efficacy thereof was investigated. Evaluation of herbicidal efficacy was carried out in the same manner as the above-mentioned Test Example 1.
# [6] = tested on: Digitaria ciliaris; assay: Weed foliar treatment test (Test 3); conditions: foliar spray at 1.0 to 2.0 leaf stage of Digitaria ciliaris, 3 weeks, 25° C.
# Protocol: as §2
# [7] = tested on: Amaranthus retroflexus; assay: Weed foliar treatment test (Test 3); conditions: foliar spray at 1.0 to 2.0 leaf stage of Digitaria ciliaris, 3 weeks, 25° C.
# Protocol: as §2
# [8] = tested on: Chenopodium album; assay: Farming soil treatment test; conditions: soil surface spray prior to weed growth, 30 days, 30° C.
# Protocol: (§3) Evaluation of herbicidal efficacy was carried out by comparing growth inhibition rate (%) with an untreated group, while evaluation of chemical damage was carried out by comparing growth inhibition rate (%) with the state of a complete eradication group, and were evaluated at 11 levels indicated below. • 0 (exponent): 0% to less than 10% (growth inhibition rate) • 1: 10% to less than 20% • 2: 20% to less than 30% • 3: 30% to less than 40% • 4: 40% to less than 50% • 5: 50% to less than 60% • 6: 60% to less than 70% • 7: 70% to less than 80% • 8: 80% to less than 90% • 9: 90% to less than 100% • 10: 100% Field soil was filled into a 1/6000 are pot followed by seeding with Digitaria ciliaris, Chenopodium album and Amraranthus retroflexus and covering with soil. Wettable powders of compounds of formula (I) shown in Table 1 prepared in compliance with the preparation examples were diluted with water to the prescribed amount of chemical and uniformly sprayed onto each soil surface layer using 100 liters of sprayed water per 10 are prior to weed growth following seeding. After treating for 30 days in a glass greenhouse at an average atmospheric temperature of 30° C., the herbicidal efficacy thereof was investigated. Evaluation of herbicidal efficacy was carried out in the same manner as the above-mentioned Test Example 1,
# [9] = tested on: Digitaria ciliaris; assay: Farming soil treatment test; conditions: soil surface spray prior to weed growth, 30 days, 30° C.
# Protocol: as §3
# [10] = tested on: Amaranthus retroflexus; assay: Farming soil treatment test; conditions: soil surface spray prior to weed growth, 30 days, 30° C.
# Protocol: as §3
# [11] = tested on: Digitaria ciliaris; assay: Weed foliar treatment test (Test 4, higher leaf stage); conditions: 10 g a.i./10a; foliar spray at 4.0 to 5.0 leaf stage of Digitaria ciliaris (plant height 10 cm to 15 cm); 20 days, 25° C.
# Protocol: (§4) Evaluation of herbicidal efficacy was carried out by comparing growth inhibition rate (%) with an untreated group, while evaluation of chemical damage was carried out by comparing growth inhibition rate (%) with the state of a complete eradication group, and were evaluated at 11 levels indicated below. • 0 (exponent): 0% to less than 10% (growth inhibition rate) • 1: 10% to less than 20% • 2: 20% to less than 30% • 3: 30% to less than 40% • 4: 40% to less than 50% • 5: 50% to less than 60% • 6: 60% to less than 70% • 7: 70% to less than 80% • 8: 80% to less than 90% • 9: 90% to less than 100% • 10: 100% Field soil was filled into a 1/4500 are pot followed by seeding with Digitaria ciliaris and Galinsoga parviflora, covering with soil and cultivating in a glass greenhouse at an average atmospheric temperature of 25° C. Wettable powders of Target Compound (I) shown, in Table 1 prepared in compliance with the preparation examples were diluted with water to the prescribed amount of chemical and uniformly sprayed onto the weeds using 100 liters of sprayed water per 10 are when Digitaria ciliaris had grown to the 4.0 to 5.0 leaf stage (plant height: 10 cm to 15 cm). After treating for 20 days in a glass greenhouse at an average atmospheric temperature of 25° C., the herbicidal efficacy thereof was investigated. Evaluation of herbicidal efficacy was carried out in the same manner as the above-mentioned Test Example 1.
# [12] = tested on: Galinsoga parviflora; assay: as above; conditions: 10 g a.i./10a; foliar spray at 4.0 to 5.0 leaf stage of Digitaria ciliaris; 20 days, 25° C.
# Protocol: as §4
Structure (SMILES),"chemical damage (growth inhibition rate level), Oryza sativa ([1]; 1 g a.i./10a)","chemical damage (growth inhibition rate level), Oryza sativa ([1]; 5 g a.i./10a)","herbicidal efficacy (growth inhibition rate level), Echinochloa crus-galli ([2]; 1 g a.i./10a)","herbicidal efficacy (growth inhibition rate level), Echinochloa crus-galli ([2]; 5 g a.i./10a)","herbicidal efficacy (growth inhibition rate level), Monochoria vaginalis ([3]; 1 g a.i./10a)","herbicidal efficacy (growth inhibition rate level), Monochoria vaginalis ([3]; 5 g a.i./10a)","herbicidal efficacy (growth inhibition rate level), Scirpus juncoides ([4]; 1 g a.i./10a)","herbicidal efficacy (growth inhibition rate level), Scirpus juncoides ([4]; 5 g a.i./10a)","herbicidal efficacy (growth inhibition rate level), Chenopodium album ([5]; 5 g a.i./10a)","herbicidal efficacy (growth inhibition rate level), Chenopodium album ([5]; 10 g a.i./10a)","herbicidal efficacy (growth inhibition rate level), Digitaria ciliaris ([6]; 5 g a.i./10a)","herbicidal efficacy (growth inhibition rate level), Digitaria ciliaris ([6]; 10 g a.i./10a)","herbicidal efficacy (growth inhibition rate level), Amaranthus retroflexus ([7]; 5 g a.i./10a)","herbicidal efficacy (growth inhibition rate level), Amaranthus retroflexus ([7]; 10 g a.i./10a)","herbicidal efficacy (growth inhibition rate level), Chenopodium album ([8]; 5 g a.i./10a)","herbicidal efficacy (growth inhibition rate level), Chenopodium album ([8]; 10 g a.i./10a)","herbicidal efficacy (growth inhibition rate level), Digitaria ciliaris ([9]; 5 g a.i./10a)","herbicidal efficacy (growth inhibition rate level), Digitaria ciliaris ([9]; 10 g a.i./10a)","herbicidal efficacy (growth inhibition rate level), Amaranthus retroflexus ([10]; 5 g a.i./10a)","herbicidal efficacy (growth inhibition rate level), Amaranthus retroflexus ([10]; 10 g a.i./10a)",also measured
N#Cc1cnn(-c2nn3c(c2Cl)CCCC3)c1NC(=O)CCCCl [Control Agent 1.37],2 (2: 20% to less than 30%),2 (2: 20% to less than 30%),3 (3: 30% to less than 40%),3 (3: 30% to less than 40%),2 (2: 20% to less than 30%),4 (4: 40% to less than 50%),1 (1: 10% to less than 20%),2 (2: 20% to less than 30%),4 (4: 40% to less than 50%),5 (5: 50% to less than 60%),3 (3: 30% to less than 40%),4 (4: 40% to less than 50%),6 (6: 60% to less than 70%),7 (7: 70% to less than 80%),4 (4: 40% to less than 50%),5 (5: 50% to less than 60%),3 (3: 30% to less than 40%),4 (4: 40% to less than 50%),5 (5: 50% to less than 60%),6 (6: 60% to less than 70%),"herbicidal efficacy (growth inhibition rate level), Digitaria ciliaris [11]: 2 (2: 20% to less than 30%); herbicidal efficacy (growth inhibition rate level), Galinsoga parviflora [12]: 4 (4: 40% to less than 50%)"
CC(=O)Nc1c([N+](=O)[O-])cnn1-c1nn2c(c1Cl)CCCC2 [Control Agent 2.17],0 (0 (exponent): 0% to less than 10% (growth inhibition rate)),1 (1: 10% to less than 20%),1 (1: 10% to less than 20%),1 (1: 10% to less than 20%),1 (1: 10% to less than 20%),2 (2: 20% to less than 30%),0 (0 (exponent): 0% to less than 10% (growth inhibition rate)),1 (1: 10% to less than 20%),0 (0 (exponent): 0% to less than 10% (growth inhibition rate)),1 (1: 10% to less than 20%),2 (2: 20% to less than 30%),2 (2: 20% to less than 30%),6 (6: 60% to less than 70%),6 (6: 60% to less than 70%),0 (0 (exponent): 0% to less than 10% (growth inhibition rate)),1 (1: 10% to less than 20%),0 (0 (exponent): 0% to less than 10% (growth inhibition rate)),1 (1: 10% to less than 20%),4 (4: 40% to less than 50%),5 (5: 50% to less than 60%),"herbicidal efficacy (growth inhibition rate level), Digitaria ciliaris [11]: 0 (0 (exponent): 0% to less than 10% (growth inhibition rate)); herbicidal efficacy (growth inhibition rate level), Galinsoga parviflora [12]: 5 (5: 50% to less than 60%)"
